Where a SMILES comes first, the peptide text is derived from it. [ ]: non-standard residue; d: D form. The star is where a group is joined. Sta = CC(C)C[C@H](N)[C@@H](O)CC(=O)O; Isovaleryl = CC(C)CC(=O)*

The values that follow come from patent US5585273A (priority 1994, dated 1996).

Assay [1] concerns Candida albicans aspartic protease. As to conditions: background statement; cited from earlier work.
Assay [2] deals with Candida albicans aspartic protease (Candida albicans, UniProt P0DJ06). As to conditions: Part II.
Chain of Candida albicans aspartic protease (Candida albicans, UniProt P0DJ06) (P0DJ06 57-398): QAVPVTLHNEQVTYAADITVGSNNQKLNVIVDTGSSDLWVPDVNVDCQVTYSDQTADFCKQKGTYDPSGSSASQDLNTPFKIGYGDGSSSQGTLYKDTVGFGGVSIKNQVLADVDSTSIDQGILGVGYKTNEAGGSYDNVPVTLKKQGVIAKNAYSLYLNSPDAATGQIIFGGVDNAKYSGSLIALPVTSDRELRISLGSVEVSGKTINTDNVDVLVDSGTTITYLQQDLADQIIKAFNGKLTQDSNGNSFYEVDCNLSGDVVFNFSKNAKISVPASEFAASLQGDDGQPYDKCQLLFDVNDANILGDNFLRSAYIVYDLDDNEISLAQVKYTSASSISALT
Method: (§1) In the second part, the enzymes are preincubated with their respective inhibitors and appropriate buffers for 15 mins. These are then added to the substrate and incubated at room temp for further 15 mins.
(§2) In both cases, the reaction mixture is centrifuged to remove solid phase conjugate. The supernatant (5 μl) is added to Hemoccult® slides and developed with 5 μl of hydrogen peroxide.
The target in assay [3] is T1, Trypsin (serine protease) from bovine pancreas (Bos taurus, UniProt P00760).
T1 construct: purchased U.S. Biochemicals; host or cells: bovine pancreas
The assay is described as follows: Inhibition of trypsin-mediated HRPO release (Experiment XV, Part 2). It counts as biochemical. As to conditions: Part II.
Method: as §1, §2

The target in assay [4] is T2, Papain (thiol protease) from papaya latex (Carica papaya, UniProt P00784).
T2 construct: purchased Sigma Chemical Co; host or cells: papaya latex
Nature of the assay: Inhibition of papain-mediated HRPO release (Experiment XV, Part 2). It counts as biochemical. As to conditions: Part II.
Method: as §1, §2

In assay [5] the test system is [Sigmacell® 20-Hemoglobin-HRPO] (or the myoglobin equivalent) conjugate. As to conditions: acetate buffer pH 4.0, 15 minutes at room temperature.
Method: 40 mg (wet weight) [Sigmacell® 20-Hemoglobin-HRPO] (or the myoglobin equivalent) conjugate were suspended in 75 microliters acetate buffer, pH 4.0 and 25 microliters of test solution were added. The suspension was incubated at room temperature for 15 minutes and centrifuged to remove the solid phase conjugate. Five microliters of the supernatant were added to a guaiac slide, followed by five microliters of hydrogen peroxide solution.
The test system of assay [6] is [POLYMERIC DIALDEHYDE-KAPPA-CASEIN-HRPO] conjugate. As to conditions: acetate buffer pH 4.0, 15 minutes at room temperature. On the procedure: The suspension was incubated at room temperature for 15 minutes and centrifuged to remove the solid phase conjugate. Five microliters of the supernatant were added to a guaiac slide, followed by five microliters of hydrogen peroxide solution.

The subject of assay [7] is [Chitin-Kappa-Casein-HRPO] conjugate. As to conditions: acetate buffer pH 4.0, 15 minutes at room temperature.
Method: 40 mg (wet weight) [Chitin-Kappa-Casein-HRPO] conjugate were suspended in 75 microliters acetate buffer, pH 4.0 and 25 microliters of test solution were added. The suspension was incubated at room temperature for 15 minutes and centfifuged to remove the solid phase conjugate. Five μl of the supernatant were added to a guaiac slide, followed by five microliters of hydrogen peroxide solution.
The subject of assay [8] is [Sigmacell® 20-Kappa-Casein-HRPO] conjugate. As to conditions: acetate buffer pH 4.0, 15 minutes at room temperature.
Method: (§3) 40 mg (wet weight) [Sigmacell® 20-Kappa-Casein-HRPO] conjugate were suspended in 75 microliters acetate buffer, pH 4.0 and 25 microliters of test solution were added. The suspension was incubated at room temperature for 15 minutes and centrifuged to remove the solid phase conjugate. Five microliters of the supernatant were added to a guaiac slide, followed by five microliters of hydrogen peroxide solution.
The test system of assay [9] is [Sepharose-Hemoglobin-HRPO] (or the myoglobin equivalent) conjugate. As to conditions: acetate buffer pH 4.0, 15 minutes at room temperature.
Method: 40 mg (wet weight) [Sepharose-Hemoglobin-HRPO] (or the myoglobin equivalent) conjugate were suspended in 75 microliters acetate buffer, pH 4.0 and 25 microliters of test solution were added. The suspension was incubated at room temperature for 15 minutes and centrifuged to remove the solid phase conjugate. Five microliters of the supernatant were added to a guaiac slide, followed by five microliters of hydrogen peroxide solution.
Assay [10] relates to [Sepharose-Casein-HRPO] (or the Kappa-Casein equivalent) conjugate. As to conditions: acetate buffer pH 4.0, 15 minutes at room temperature.
Method: 40 mg (wet weight) [Sepharose-Casein-HRPO] (or the Kappa-Casein equivalent) conjugate were suspended in 75 microliters acetate buffer, pH 4.0 and 25 microliters of test solution were added. The suspension was incubated at room temperature for 15 minutes and centrifuged to remove the solid phase conjugate. Five microliters of the supernatant were added to a guaiac slide, followed by five microliters of hydrogen peroxide solution.
Assay [11] relates to [SIGMACELL® 20-KAPPA-CASEIN-HRPO] (HYDRAZIDE METHOD) or [SIGMACELL® 20-MYOGLOBIN/HEMOGLOBIN-HRPO] (ALDEHYDE METHOD). As to conditions: acetate buffer pH 4.0, 15 minutes at room temperature.
Method: as §3
Assay [12] deals with [Eupergit® C-Myoglobin-HRPO]. The assay is described as follows: Activity of various proteases on Eupergit C-myoglobin-HRPO (Experiment XV). Format: biochemical. As to conditions: Part I. On the procedure:
This assay is set up in two parts. The first is to determine the activity of the different proteases on the substrate [Eupergit® C-Myoglobin-HRPO]. The enzymes and controls (enzymes boiled for 15 min) are incubated with 20 mg of substrate and buffers (see quantities in table below) for 15 minutes prior to assay.

Take `CC(C)CC(=O)N[C@H](C(=O)N[C@H](C(=O)N[C@@H](CC(C)C)[C@@H](O)CC(=O)N[C@@H](C)C(=O)N[C@@H](CC(C)C)[C@@H](O)CC(=O)O)C(C)C)C(C)C` [Pepstatin, Pepstatin A] (Isovaleryl-VV[Sta]A[Sta]-OH): the “inhibition of Candida albicans aspartic protease” value in assay [1] is on record as “strongly inhibited”. Moreover, in assay [2], the “inhibition of color formation by aspartic protease” value was “inhibits color formation”.
For `Cc1ccc(S(=O)(=O)NC(CCCCN)C(=O)CCl)cc1` (stereo not drawn) [TLCK, Tosyl lysine chloromethyl ketone], in assay [3], the “inhibition of color formation by trypsin” value is “inhibits color formation”. The “inhibition of color formation by papain” value in assay [4] was “inhibits color formation”.
With Pepsin, the “blue color formation on guaiac impregnated sheet” value in assay [5], in [6], in assay [7], in [8], in assay [9] and in [10] was “dark blue color” throughout. For the same molecule, in assay [11], the “blue color formation on guaiac impregnated sheet” value is recorded as “dark blue color”.

B1: Papain (boiled): papain boiled for 15 min (control) (protein, UniProt P00784 134-345, looked up)
Papain: IPEYVDWRQKGAVTPVKNQGSCGSCWAFSAVVTIEGIIKIRTGNLNEYSEQELLDCDRRSYGCNGGYPWSALQLVAQYGIHYRNTYPYEGVQRYCRSREKGPYAAKTDGVRQVQPYNEGALLYSIANQPVSVVLEAAGKDFQLYRGGIFVGPCGNKVDHAVAAVGYGPNYILIKNSWGTGWGENGYIRIKRGTGNSYGVCGLYTSSFYPVKN
modifications: heat-denatured
B1: in assay [12] (pH 7.4), the “blue color formation on guaiac slides” value is “faintest color detectable”.

B2: Papain: Papain (thiol protease) from papaya latex (12 units/mg activity), 2 mg/ml (protein, UniProt P00784 134-345, looked up)
Papain: IPEYVDWRQKGAVTPVKNQGSCGSCWAFSAVVTIEGIIKIRTGNLNEYSEQELLDCDRRSYGCNGGYPWSALQLVAQYGIHYRNTYPYEGVQRYCRSREKGPYAAKTDGVRQVQPYNEGALLYSIANQPVSVVLEAAGKDFQLYRGGIFVGPCGNKVDHAVAAVGYGPNYILIKNSWGTGWGENGYIRIKRGTGNSYGVCGLYTSSFYPVKN
With B2, the “blue color formation on guaiac slides” value in assay [12] (pH 7.0) is on record as “strong blue color”.

B3: Trypsin (boiled): trypsin boiled for 15 min (control) (protein, UniProt P00760 24-246, looked up)
Serine protease 1: IVGGYTCGANTVPYQVSLNSGYHFCGGSLINSQWVVSAAHCYKSGIQVRLGEDNINVVEGNEQFISASKSIVHPSYNSNTLNNDIMLIKLKSAASLNSRVASISLPTSCASAGTQCLISGWGNTKSSGTSYPDVLKCLKAPILSDSSCKSAYPGQITSNMFCAGYLEGGKDSCQGDSGGPVVCSGKLQGIVSWGSGCAQKNKPGVYTKVCNYVSWIKQTIASN
modifications: heat-denatured
For the molecule B3, in [12] (pH 7.4), the “blue color formation on guaiac slides” value was “faintest color detectable”.

B4: Trypsin: Trypsin (serine protease) from bovine pancreas (2900 units/mg activity), 2 mg/ml (protein, UniProt P00760 24-246, looked up)
Serine protease 1: IVGGYTCGANTVPYQVSLNSGYHFCGGSLINSQWVVSAAHCYKSGIQVRLGEDNINVVEGNEQFISASKSIVHPSYNSNTLNNDIMLIKLKSAASLNSRVASISLPTSCASAGTQCLISGWGNTKSSGTSYPDVLKCLKAPILSDSSCKSAYPGQITSNMFCAGYLEGGKDSCQGDSGGPVVCSGKLQGIVSWGSGCAQKNKPGVYTKVCNYVSWIKQTIASN
In the case of B4, in [12] (pH 7.4), the “blue color formation on guaiac slides” value was “strong blue color”.
